Laboratory results taken from US9018208B2, “Heterocycles as potassium channel modulators” (Icagen Inc., priority 2007, dated 2015).
pEC50: −log10 of the molar value. Where two headings read alike, the source gives them in different places. Values belong to the compound of their own block, whether it stands above or below them.

Legend:
[1] = test system: SH-SY5Y M-currents (KCNQ2, KCNQ3 and KCNQ5); experiment: SH-SY5Y native cell line FLIPR assay (voltage-sensitive dye DiBAC); assay type: cell-based, mouse neuroblastoma, rat glioma hybrid cell line; conditions: SH-SY5Y native cell line, read-out: SH-SY5Y EC50
Method in brief: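 Response is peak DiBAC fluorescence change, normalised to the maximum from a positive control agent, sampled every 30 s over 25 min. Before compound addition, SH-SY5Y cells differentiated with PGE1 plus isomethylbutylxanthine were dye-loaded for 1 h in EBSS with […] DiBAC.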

[2] = Metabolic stability in rats after oral administration (mass spectrometry); assay type: in vivo, rat; conditions: result in words
Description: Metabolite 14% of parent for compound 65 and metabolite 35% of parent for compound 366 were observed.

[3] = test system: electroshock seizure, Male Wistar rats; experiment: In vivo rat assay for anti-convulsant activity (rat MES, electroshock seizure); conditions: for ED50: Rattus norvegicus, po, rat MES dose-response; for Rat MES activity: single dose screening, oral, typically 10 mg/kg, animals protected from hind limb extension
Procedure: Male Wistar rats were housed 4 per cage on a regular light/dark cycle (lights on 0600-1800) for one week prior to anti-convulsant testing. The apparatus used to induce electroshock seizure was obtained from Walhquist Instrument Co., Salt Lake City, Utah. The shock level was set at 150 mA and the duration at 0.2 seconds. A drop of 1% proparacaine solution was placed in each eye of a rat, the electrodes were placed over the eyes, and the shock was administered. Latency to hind limb extension was measured to the nearest 0.1 second.
The KCNQ opener was homogenized in either 0.5% carboxymethylcellulose in water or 0.5% methylcellulose in water) and administered orally through a steel 18-gauge rat gavage tube in a volume of 2 mL/kg of body weight. In the single dose screening assay, latency to seizure for the vehicle group and the KCNQ opener group were compared using t-test. Typically a dose of 10 mg/kg of the opener is used. However, openers can be run n a dose-response experiment where doses of 1, 3, 10 and 30 mg/Kg are used.
In the single dose screening assay, latency to seizure for the vehicle and the 10 mg/kg groups were compared using t-test. Latencies to seizure in the dose response studies were submitted to analysis of variance and all dose groups were compared to vehicle using Dunnett's method (JMP© ver 5.1, SAS). In all cases an effect was considered significant if p≦0.05.

[4] = test system: tactile allodynia following L5 nerve ligation, Male Sprague-Dawley rats; experiment: In vivo rat assay for neuropathic pain (L5 spinal nerve ligation, Von Frey tactile allodynia); conditions: oral, Von Frey 50% paw withdrawal threshold after L5 ligation
Description: A neuropathic pain condition is induced in rats using a nerve injury model similar to the method described by Kim and Chung (Kim, S. H. & Chung, J. M. (1992) Pain 50:355-363). Rats (Male Sprague-Dawley, Charles River, Wilmington, Mass.) weighing 200-300 grams were utilized. Food and water was available ad libitum except during testing) are anesthetized with halothane and the L5 spinal nerve is exposed, carefully isolated, and tightly ligated with 4.0 silk suture distal to the dorsal root ganglia. The wounds are sutured and the animals are allowed to recover in individual cages. To test the effect of a KCNQ opener on tactile allodynia following L5 nerve ligation, Von Frey tactile withdrawal thresholds are determined. Test animals are placed in a box separated by walls with a wire mesh floor allowing access to the plantar surface of the paw. […] Failure to lift the hind paw after 4 seconds is scored as a negative response and the next ascending hair is applied. […]
Baseline measurements of allodynia are performed immediately prior to subject selection and compound administration. […] Additional paw withdrawal thresholds are measured at various time intervals after compound administration. Examples 153 and 19 were evaluated in this assay.

[5] = test system: carrageenan-induced thermal hyperalgesia, Sprague Dawley rats; experiment: In vivo rat model for inflammatory pain (carrageenan, thermal hyperalgesia); conditions: oral, carrageenan paw, thermal escape latency
Procedure: Compounds with anti-hyperalgesic activity will increase (or lengthen) the escape latency of the inflamed paw.
To induce a local inflammation, 50 μL of a 1% solution of λ-carrageenan in sterile water is injected subcutaneously into the plantar surface of the right hind paw of the rat (Sprague Dawley rats, sample size=8 per treatment group). The KCNQ openers typically at doses ranging from 1-100 mg/kg were homogenized in either 0.5% carboxymethylcellulose in water or 0.5% methylcellulose in water and administered orally through a steel 18-gauge rat gavage tube in a volume of 2 mL/kg of body weight 30 minutes prior to carrageenan injection. After carrageenan injection behavioral testing is conducted at the appropriate time following opener or vehicle administration (generally Tmax, the time of maximum plasma levels of the compound being tested). To assess the thermally evoked paw withdrawal response, a commercially available Hargreaves Box was used (UCSD Department of Anesthesiology, San Diego; La Jolla, Calif., stimulus intensity 5.25 amps). Rats were placed on a thin glass surface in individual chambers made of clear plastic. […] The time to withdrawal response is measured in seconds and assigned as the response latency. […]

pEC50 ([1]; FLIPR assay (Table 3)): > 6.30
Compound: CC(C)(C)CC(=O)Nc1nc2ccc(F)cn2c1-c1cc(C(F)(F)F)ccn1 [Compound 366, N-(6-fluoro-3-(4-(trifluoromethyl)pyridin-2-yl)imidazo[1,2-a]pyridin-2-yl)-3,3-dimethylbutanamide]
metabolism in rats [2]: undergo metabolism at the terminal carbon of the t-butyl group

pEC50 ([1]; FLIPR assay (Table 6)): 5.52 to 6.30
metabolism in rats [2]: little or no metabolism
Compound: CC(C)(CC(=O)Nc1nc2ccc(F)cn2c1-c1cc(C(F)(F)F)ccn1)C(F)(F)F [Compound 433, 4,4,4-trifluoro-N-(6-fluoro-3-(4-(trifluoromethyl)pyridin-2-yl)imidazo[1,2-a]pyridin-2-yl)-3,3-dimethylbutanamide]
ED50 [3]: 3.9 mg/kg

pEC50 ([1]; FLIPR assay, Table 2): > 6.30
Compound: CC(C)(C)CC(=O)Nc1nc2ccc(F)cn2c1-c1ccc(OC(F)(F)F)cc1 [Compound 153, N-(6-fluoro-3(4-(trifluoromethoxy)phenyl)imidazo[1,2-a]pyridin-2-yl)-3,3-dimethylbutanamide]
ED50 [4]: 1.9 mg/kg
ED50 [3]: 0.5 mg/kg
Rat MES activity [3]: +++ (+++ 7-8 animals protected)
ED50 [5]: 0.5 to 1 mg/kg

pEC50 ([1]; FLIPR assay, Table 1): 5.52 to 6.30
Compound: CC(C)(C)CC(=O)Nc1nc2ccc(C(F)(F)F)cn2c1C1CC1 [Compound 65, N-(3-cyclopropyl-6-(trifluoromethyl)imidazo[1,2-a]pyridin-2-yl)-3,3-dimethylbutanamide]
metabolism in rats [2]: undergo metabolism at the terminal carbon of the t-butyl group

pEC50 ([1]; FLIPR assay, Table 2): > 6.30
Compound: CC(C)(C)CC(=O)Nc1nc2ccccn2c1-c1ccc(OC(F)(F)F)cc1 [Compound 225, 3,3-dimethyl-N-(3-(4-(trifluoromethoxy)phenyl)imidazo[1,2-a]pyridin-2-yl)butanamide]
Rat MES activity [3]: ++ (++ 4-6 animals protected)

pEC50 ([1]; FLIPR assay (Table 6)): 5.52 to 6.30
Compound: O=C(Nc1nc2ccc(C(F)(F)F)cn2c1C1CCCC1)c1ccc(F)c(F)c1 [Compound 430, N-(3-cyclopentyl-6-(trifluoromethyl)imidazo[1,2-a]pyridin-2-yl)-3,4-difluorobenzamide]
ED50 [3]: 2.3 mg/kg
Rat MES activity [3]: ++ (++ 4-6 animals protected)

pEC50 ([1]; FLIPR assay, Table 1): > 6.30
Compound: O=C(Cc1ccccc1)Nc1nc2ccc(C(F)(F)F)cn2c1C1CCCCC1 [Compound 38, N-(3-cyclohexyl-6-(trifluoromethyl)imidazo[1,2-a]pyridin-2-yl)-2-phenylacetamide]
Rat MES activity [3]: ++ (++ 4-6 animals protected)

pEC50 ([1]; FLIPR assay, Table 2): > 6.30
Compound: CC(C)(C)CC(=O)Nc1nc2ccc(F)cn2c1-c1cc(F)cc(C(F)(F)F)c1 [Compound 198, N-(6-fluoro-3-(3-fluoro-5-(trifluoromethyl)phenyl)imidazo[1,2-a]pyridin-2-yl)-3,3-dimethylbutanamide]
Rat MES activity [3]: +++ (+++ 7-8 animals protected)

pEC50 ([1]; FLIPR assay, Table 1): > 6.30
Compound: CC(C)(C)CC(=O)Nc1nc2ccc(C(F)(F)F)cn2c1CC(C)(C)C [Compound 19, 3,3-dimethyl-N-(3-neopentyl-6-(trifluoromethyl)imidazo[1,2-a]pyridin-2-yl)butanamide]
ED50 [4]: 10 mg/kg
Rat MES activity [3]: +++ (+++ 7-8 animals protected)

pEC50 ([1]; FLIPR assay, Table 1): > 6.30
Compound: CC(CC(=O)Nc1nc2ccc(C(F)(F)F)cn2c1CC(C)(C)C)C(F)(F)F (centres unmarked) [Compound 23, 4,4,4-trifluoro-3-methyl-N-(3-neopentyl-6-(trifluoromethyl)imidazoyl)butanamide]
Rat MES activity [3]: + (+ 2-3 animals protected)

pEC50 ([1]; FLIPR assay (Table 3)): > 6.30
Compound: CC(C)(C)CC(=O)Nc1nc2ccc(F)cn2c1-c1nc2ccccc2s1 [Compound 360, N-(3-(benzo[d]thiazol-2-yl)-6-fluoroimidazo[1,2-a]pyridin-2-yl)-3,3-dimethylbutanamide]
Rat MES activity [3]: + (+ 2-3 animals protected)

pEC50 ([1]; FLIPR assay, Table 1): > 6.30
Compound: CC(C)(C)CC(=O)Nc1nc2ccc(C(F)(F)F)cn2c1CC1CCCCC1 [Compound 32, N-(3-(cyclohexylmethyl)-6-(trifluoromethyl)imidazo[1,2-a]pyridin-2-yl)-3,3-dimethylbutanamide]
Rat MES activity [3]: + (+ 2-3 animals protected)

pEC50 ([1]; FLIPR assay (Table 6)): > 6.30
metabolism in rats [2]: little or no metabolism
Compound: CC(C)(CC(=O)Nc1nc2ccc(C(F)(F)F)cn2c1C1CCC1)C(F)(F)F [Compound 431, N-(3-cyclobutyl-6-(trifluoromethyl)imidazo[1,2-a]pyridin-2-yl)-4,4,4-trifluoro-3,3-dimethylbutanamide]
ED50 [3]: 5.2 mg/kg
Rat MES activity [3]: +++ (+++ 7-8 animals protected)

pEC50 ([1]; FLIPR assay (Table 6)): 5.52 to 6.30
Compound: CC(C)(C(=O)Nc1nc2ccc(C(F)(F)F)nn2c1C1CC1)C(F)(F)F [Compound 435, N-(3-cyclopropyl-6-(trifluoromethyl)imidazo[1,2-b]pyridazin-2-yl)-3,3,3-trifluoro-2,2-dimethylpropanamide]
Rat MES activity [3]: +++ (+++ 7-8 animals protected)

pEC50 ([1]; FLIPR assay (Table 6)): 5.52 to 6.30
Compound: CC(C)(C(=O)Nc1nc2ccc(C(F)(F)F)cn2c1C1CC1)C(F)(F)F [Compound 429, N-(3-cyclopropyl-6-(trifluoromethyl)imidazo[1,2-a]pyridin-2-yl)-3,3,3-trifluoro-2,2-dimethylpropanamide]
ED50 [3]: 3.4 mg/kg
Rat MES activity [3]: +++ (+++ 7-8 animals protected)

pEC50 ([1]; FLIPR assay (Table 3)): > 6.30
Compound: CC(C)(C)CC(=O)Nc1nc2ccc(F)cn2c1-c1ccc(Cl)cn1 [Compound 363, N-(3-(5-chloropyridin-2-yl)-6-fluoroimidazo[1,2-a]pyridin-2-yl)-3,3-dimethylbutanamide]
Rat MES activity [3]: ++ (++ 4-6 animals protected)

pEC50 ([1]; FLIPR assay, Table 2): > 6.30
Compound: Cc1ccc2nc(NC(=O)CC(C)(C)C)c(-c3cccc(C(F)(F)F)c3)n2n1 [Compound 308, 3,3-dimethyl-N-(6-methyl-3-(3-(trifluoromethyl)phenyl)imidazo[1,2-b]pyridazin-2-yl)butan amide]
ED50 [3]: 1.6 mg/kg
Rat MES activity [3]: +++ (+++ 7-8 animals protected)
